The record followed here is patent US11717549B2, “Steviol glycoside solubility enhancers” (CARGILL, INCORPORATED, priority 2017, dated 2023).

This data set is described as follows: Observation for solubility / precipitation of acid and steviol glycoside samples in water (Example I). Conditions: 0.3% steviol glycoside; 5:1 and 2:1 molar ratio of pamoic acid to steviol glycoside; pH not adjusted.

pamoic acid: the “solubility of sample (conclusion)” value is “not initially soluble and remained insoluble at least after 1 day”.
